Assay results from patent publication US11560370B1, “5-membered heteroaryl carboxamide compounds for treatment of HBV” (Assembly Biosciences, Inc., priority 2018, dated 2023).
Several values for one entry are separate records, joined by “and”; a condition that tells them apart may be missing. Identical values can stand only once. Like-named read-outs stand apart in the source and are kept apart here.

Tested on: HBV
Test: Viral production from HepAD38 cells, viral load by qPCR of HBV core sequence
Assay type: cell-based
Conditions: 5 days, supernatant HBV DNA by qPCR, read-out: Viral Load EC50 Activity range
Procedure: Assay Measuring Activity of Test Compounds on Viral Production from HepAD38 Cells
HepAD38 cells grown in a T-150 flask (Corning, cat #: 430825) with Growth Medium (DMEM/F12 (1:1) (Hyclone, cat #: SH30023.02), 1× Pen/Strep (Invitrogen, cat #: 15140-122), 10% FBS (Tissue Culture Biologics, cat #: 101), 250 μg/mL G418 (Alfa Aesar, cat #: J62671), 1 μg/mL Tetracycline (Teknova, cat #: T3320)) were detached with 0.25% trypsin-EDTA to (Invitrogen, cat #: 25200-056). Tetracycline-free treatment medium (15 mL DMEM/F12 (1:1) 1× Pen/step, with 2% FBS, Tet-system approved (Clontech, cat #: 631106) were then added to mix, transferred into a 50 ml conical tube (Falcon, cat #: 21008-918,) and spun at 1300 rpm for 5 min. Pelleted cells were then re-suspended/washed with 50 mL of 1×DPBS (Invitrogen, cat #: 14190-136) 2 times and 50 mL treatment medium twice. HepAD38 cells were then re-suspended with 10 mL of treatment medium, syringed and counted. Wells of 96-well clear bottom TC plate (Corning, cat #: 3904,) were seeded at 50,000 cells/well in 180 μL of treatment medium, and 20 μL of either 10% DMSO (Sigma, cat #: D4540) as controls or a 10× solution of test compounds in 10% DMSO in treatment media was added for a final compound concentration starting at 10 μM, and plates were incubated in 5% CO2 incubator at 37° C. for 5 days.
Subsequently viral load production was assayed by quantitative PCR (qPCR) of the HBV core sequence. PCR reaction mixture containing forward primers HBV-f 5′-CTGTGCCTTGGGTGGCTTT-3′ (IDT DNA), Reverse primers HBV-r 5′-[…]-3′ (IDT DNA), Fluorescent TaqMan™ Probes HBV-probe 5′-FAM/AGCTCCAAA/ZEN/[…]/3IABkFQ-3′ (IDT DNA), 10 μL/well of PerfeCTa® qPCR ToughMix® (Quanta Biosciences, Cat #: 95114-05K), and 6 μL/well of DEPC water (Alfa Aesar, cat #: J62087) was prepared. […] of supernatant was added to 16 μL of the reaction mixture in a qPCR plate (Applied Biosytems, Cat #: 4309849), sealed with a film (Applied Biosystems, Cat #: 4311971), centrifuged for a few seconds, and subsequently run on an Applied Biosystems VIIA7. The PCR mixture was incubated at 45° C. for 5 min, then 95° C. for 10 min, followed by 40 cycles of 10 seconds at 95° C. and 20 seconds at 60° C. Viral load was quantified against known HBV DNA standards by using ViiA™ 7 Software. Viral load in the supernatant from wells with treated cells were compared against viral load in supernatant from DMSO control wells (>3 per plate). Cell viability assay was performed with CellTiter-Glo Luminescent Cell Viability Assay (Promega, cat #: G7573) with modification. Mixed appropriate amount of CellTiter-Glo (CTG) 1×DPBS in a 1:1 ratio, added 100 uL of the mixture to each well followed completely removal of all supernatant in each well without touching cell surface. Incubated the plate at room temperature for 10 min on an orbital shaker, and then read the plate with a plate reader (TECAN M1000 or Envision). EC50 or CC50 values were calculated through curve-fitting of the four-parameter nonlinear-logistic-regression model (GraphPad Prism or Dotmatics). CC50 values were all >10 μM.

[1] = Hepatitis B virus, HePAD38, 120 h

Compound	EC50	EC50 [1] [nM]
5-Amino-N-(3-chloro-4-fluorophenyl)-1-methyl-3-(3-(pyridin-4-yl)cyclopentyl)-1H-pyrazole-4-carboxamide [AIA-271]	< 100 nM	
5-Amino-N-(3-chloro-4-fluorophenyl)-3-(3-(3-chlorophenyl)cyclopentyl)-1-methyl-1H-pyrazole-4-carboxamide [AIA-273]	< 100 nM and 100 to 500 nM	
Cn1cc(C2CCC(c3nn(C)c(N)c3C(=O)Nc3ccc(F)c(Cl)c3)C2)cn1 (single isomer, unassigned) [AIA-004-A, 5-Amino-N-(3-chloro-4-fluorophenyl)-1-methyl-3-(3-(1-methyl-1H-pyrazol-4-yl)cyclopentyl)-1H-pyrazole-4-carboxamide]	< 100 nM	
Cn1cc(C2CCC(c3nn(C)c(N)c3C(=O)Nc3ccc(F)c(Cl)c3)C2)cn1 (single isomer, unassigned) [AIA-004-B, 5-Amino-N-(3-chloro-4-fluorophenyl)-1-methyl-3-(3-(1-methyl-1H-pyrazol-4-yl)cyclopentyl)-1H-pyrazole-4-carboxamide]		100 to 500
Cn1cc(C2CCC(c3nn(C)c(N)c3C(=O)Nc3ccc(F)c(Cl)c3)C2)cn1 (single isomer, unassigned) [AIA-004-C, 5-Amino-N-(3-chloro-4-fluorophenyl)-1-methyl-3-(3-(1-methyl-1H-pyrazol-4-yl)cyclopentyl)-1H-pyrazole-4-carboxamide]	100 to 500 nM	
Cn1cc(C2CCC(c3nn(C)c(N)c3C(=O)Nc3ccc(F)c(Cl)c3)C2)cn1 (single isomer, unassigned) [AIA-004-D, 5-Amino-N-(3-chloro-4-fluorophenyl)-1-methyl-3-(3-(1-methyl-1H-pyrazol-4-yl)cyclopentyl)-1H-pyrazole-4-carboxamide]	< 100 nM	
Cn1nc(C2CC3CNC(=O)CC3C2)c(C(=O)Nc2ccc(F)c(Cl)c2)c1N (single isomer, unassigned) [AIA-033-A, 5-Amino-N-(3-chloro-4-fluorophenyl)-1-methyl-3-(3-oxooctahydro-1H-cyclopenta[c]pyridin-6-yl)-1H-pyrazole-4-carboxamide]		100 to 500
Cn1nc(C2CC3CNC(=O)CC3C2)c(C(=O)Nc2ccc(F)c(Cl)c2)c1N (single isomer, unassigned) [AIA-033-B, 5-Amino-N-(3-chloro-4-fluorophenyl)-1-methyl-3-(3-oxooctahydro-1H-cyclopenta[c]pyridin-6-yl)-1H-pyrazole-4-carboxamide]	< 100 nM	
Cn1nc(C2CC3C[S+]([O-])CC3C2)c(C(=O)Nc2ccc(F)c(Cl)c2)c1N (single isomer, unassigned) [AIA-056-A, 5-Amino-N-(3-chloro-4-fluorophenyl)-1-methyl-3-(2-oxidohexahydro-1H-cyclopenta[c]thiophen-5-yl)-1H-pyrazole-4-carboxamide]		500 to 10000
Cn1nc(C2CC3C[S+]([O-])CC3C2)c(C(=O)Nc2ccc(F)c(Cl)c2)c1N (single isomer, unassigned) [AIA-056-B, 5-Amino-N-(3-chloro-4-fluorophenyl)-1-methyl-3-(2-oxidohexahydro-1H-cyclopenta[c]thiophen-5-yl)-1H-pyrazole-4-carboxamide]	500 to 10000 nM	
Cn1nc(C2CCC(c3ccccc3)C2)c(C(=O)Nc2ccc(F)c(Cl)c2)c1N (single isomer, unassigned) [AIA-202A, 5-Amino-N-(3-chloro-4-fluorophenyl)-1-methyl-3-(3-phenylcyclopentyl)-1H-pyrazole-4-carboxamide]	< 100 nM	
Cn1nc(C2CCC(c3ccccc3)C2)c(C(=O)Nc2ccc(F)c(Cl)c2)c1N (single isomer, unassigned) [AIA-202B, 5-Amino-N-(3-chloro-4-fluorophenyl)-1-methyl-3-(3-phenylcyclopentyl)-1H-pyrazole-4-carboxamide]	< 100 nM	
Cn1nc(C2CCC(c3ccccc3)C2)c(C(=O)Nc2ccc(F)c(Cl)c2)c1N (single isomer, unassigned) [AIA-202C, 5-Amino-N-(3-chloro-4-fluorophenyl)-1-methyl-3-(3-phenylcyclopentyl)-1H-pyrazole-4-carboxamide]	500 to 10000 nM	
Cn1nc(C2CCC(c3ccccc3)C2)c(C(=O)Nc2ccc(F)c(Cl)c2)c1N (single isomer, unassigned) [AIA-202D, 5-Amino-N-(3-chloro-4-fluorophenyl)-1-methyl-3-(3-phenylcyclopentyl)-1H-pyrazole-4-carboxamide]	< 100 nM	
Cn1nc(C2CC(c3ccccc3)C2)c(C(=O)Nc2ccc(F)c(Cl)c2)c1N (single isomer, unassigned) [AIA-224A, 5-Amino-N-(3-chloro-4-fluorophenyl)-1-methyl-3-(3-phenylcyclobutyl)-1H-pyrazole-4-carboxamide]	< 100 nM	
Cn1nc(C2CC(c3ccccc3)C2)c(C(=O)Nc2ccc(F)c(Cl)c2)c1N (single isomer, unassigned) [AIA-224B, 5-Amino-N-(3-chloro-4-fluorophenyl)-1-methyl-3-(3-phenylcyclobutyl)-1H-pyrazole-4-carboxamide]		100 to 500
CCS(=O)(=O)CC1(O)CC2CC(c3nn(C)c(N)c3C(=O)Nc3ccc(F)c(Cl)c3)CC2C1 (single isomer, unassigned) [AIA-250-1, 5-Amino-N-(3-chloro-4-fluorophenyl)-3-(5-((ethylsulfonyl)nethyl)-5-hydroxyoctahydropentalen-2-yl)-1-methyl-1H-pyrazole-4-carboxamide]		< 100
Cn1nc(C2CC3CC(O)(CS(=O)(=O)C4CC4)CC3C2)c(C(=O)Nc2ccc(F)c(Cl)c2)c1N (single isomer, unassigned) [AIA-252-2, 5-Amino-N-(3-chloro-4-fluorophenyl)-3-(5-((cyclopropylsulfonyl)methyl)-5-hydroxyortahydropentalen-2-yl)-1-methyl-1H-pyrazole-4-carboxamide]		< 100
CCC1OCC2(CC3CC(c4nn(C)c(N)c4C(=O)Nc4ccc(F)c(Cl)c4)CC3C2)O1 (single isomer, unassigned) [AIA-255-3, 5-Amino-N-(3-chloro-4-fluorophenyl)-3-(2′-ethylhexahydro-1H-spiro[pentalene-2,4′-[1,3]dioxolan]-5-yl)-1-methyl-1H-pyrazole-4-carboxamide]		< 100
Cn1nc(C2CC3CC(O)(CSCC(F)(F)F)CC3C2)c(C(=O)Nc2ccc(F)c(Cl)c2)c1N (single isomer, unassigned) [AIA-258-2, 5-Amino-N-(3-chloro-4-fluorophenyl)-3-(5-hydroxy-5-(((2,2,2-trifluoroethyl)thio)methyl)octahydropentalen-2-yl)-1-methyl-1H-pyrazole-4-carboxamide]		< 100
Cn1nc(C2CC3CC(O)(CS(=O)(=O)C(C)(C)C)CC3C2)c(C(=O)Nc2ccc(F)c(Cl)c2)c1N (single isomer, unassigned) [AIA-260-1, 5-Amino-3-(5-((tert-butylsulfonyl)methyl)-5-hydroxyoctahydropentalen-2-yl)-N-(3-chloro-4-fluorophenyl)-1-methyl-1H-pyrazole-4-carboxamide]		< 100
Cn1nc(C2CC3CC(O)(CSC(C)(C)C)CC3C2)c(C(=O)Nc2ccc(F)c(Cl)c2)c1N (single isomer, unassigned) [AIA-262-2, 5-Amino-3-(5-((tert-butylthio)methyl)-5-hydroxyoctahydropentalen-2-yl)-N-(3-chloro-4-fluorophenyl)-1-methyl-1H-pyrazole-4-carboxamide]		< 100
Cn1nc(C2CC3CC(O)(CS(=O)(=O)CCO)CC3C2)c(C(=O)Nc2ccc(F)c(Cl)c2)c1N (single isomer, unassigned) [AIA-266-1, 5-Amino-N-(3-chloro-4-fluorophenyl)-3-(5-hydroxy-5-(((2-hydroxyethyl)sulfonyl)methyl)octahydropentalen-2-yl)-1-methyl-1H-pyrazole-4-carboxamide]		< 100
